Reference: patent US9597302B1, “Combination of dofetilide and mexiletine for the prevention and treatment of atrial fibrillation” (Heart Rhythm Solutions, Inc., priority 2015, dated 2017)
Entries after “also recorded” stand apart in the source; their conditions may differ.

How the values were obtained:
[1] = tested on: arterially-perfused rabbit atrial wedge preparations; experiment: Induction of atrial fibrillation by programming stimulation in arterially-perfused rabbit atrial wedge preparations; details: for suppression of induction of atrial fibrillation: programming stimulation, concentrations of Table 1
Procedure: (§1) Rabbits (New Zealand White) of either sex, weighing 2.0-2.8 kg were injected with heparin (800 U/kg) via an ear vein and anesthetized by intramuscular injection of xylazine (5 mg/kg) and intravenous administration of ketamine HCl (30-35 mg/kg, i.v.). The chest was opened via a left thoracotomy, and the heart was excised and placed in a cardioplegic solution consisting of cold (4° C.) normal Tyrode's solution.
(§2) Surgical preparation of the rabbit right or left atrial wedge was essentially similar to that in Preclinical assessment of drug-induced proarrhythmias: role of the arterially perfused rabbit left ventricular wedge preparation,^18 herein incorporated by reference. Briefly, the atrial preparation was dissected from the rabbit heart and cannulated via a coronary artery branch, either from the right coronary artery (the right atrial wedge) or the left coronary artery (the left atrial wedge), and perfused with a cardioplegic solution. Similarly, the left ventricular wedge preparation was dissected from the rabbit heart and arterially cannulated via a branch of left coronary artery. The atrial or ventricular wedge preparation was then placed in a small tissue bath and arterially perfused with Tyrode's solution containing 4.0 mM K^+ buffered with 95% O2 and 5% CO2 at a temperature of 35.7±0.1° C. The preparations were paced at basic cycle lengths (BCL) of 300, 500, 1000 and 2000 ms.
Atrial fibrillation was induced by programming stimulation using single or double extrastimuli (S2 and S3). Basic cycle lengths (S1 and S1) of 1000 and 500 ms were used for induction of atrial fibrillation.

[2] = literature refs 19-21; cited from earlier work
[3] = tested on: arterially perfused rabbit atrial wedge preparations; experiment: Atrial effective refractory period (ERP) and loss of excitation in arterially perfused rabbit atrial wedge preparations; details: for atrial preparations that lost excitation, drug alone: dofetilide (10 nM) or mexiletine (30 μM) used alone; for effect on atrial ERP, drug alone: each drug alone (FIG. 2)
Procedure: as §1, §2
Atrial effective refractory period (ERP) was measured by introducing an extrastimulus (S2) repeatedly every 10 pulses (S1) at two folds of the pacing threshold. […] In the preparations that lost excitation intermittently after drug interventions, the ERP was then considered to be equal to the S1-S1 interval.

[4] = tested on: arterially-perfused rabbit left ventricular wedge preparations; experiment: Dofetilide-induced EAD, R-on-T extrasystoles and TdP in arterially-perfused rabbit left ventricular wedge preparations
Procedure: as §1, §2
Two extracellular silver/silver chloride electrodes were placed on the endocardial or epicardial surfaces to record bipolar atrial electrograms (EGM). A transmural ECG was recorded in the ventricular wedge preparation using two extracellular silver/silver chloride electrodes placed in the bath 0.5 to 1.5 cm from the epicardial and endocardial surfaces of the preparation (Epi: “+” pole). Transmembrane action potential was recorded from the endocardium or epicardium using the floating glass microelectrodes. Atrial action potential duration at 90% repolarization (APD90) was used for data analysis.
Early afterdepolarization (EAD), EAD-dependent R-on-T extrasystoles and torsade de pointes (TdP) were induced by dofetilide in the rabbit left ventricular wedges which were paced at a BCL of 2000 ms and perfused with Tyrode's solution containing 3 mM K^+, which is equivalent to hypokalemia in humans. Lower K^+ potentiated the effect of dofetilide to induced EAD, R-on-T and TdP. The K^+ concentration in Tyrode's solution remained the same when the effect of mexiletine on dofetilide-induced EAD, R-on-T and TdP was examined.

[5] = tested on: arterially perfused rabbit atrial wedge preparations; experiment: Atrial action potential duration (APD90) in arterially perfused rabbit atrial wedge preparations; details: dofetilide 3 nM and 10 nM; BCL 1000 ms or 500 ms (FIG. 1)
Procedure: as §1
Surgical preparation of the rabbit right or left atrial wedge was essentially similar to that in Preclinical assessment of drug-induced proarrhythmias: role of the arterially perfused rabbit left ventricular wedge preparation,^18 herein incorporated by reference. […]
Two extracellular silver/silver chloride electrodes were placed on the endocardial or epicardial surfaces to record bipolar atrial electrograms (EGM). A transmural ECG was recorded in the ventricular wedge preparation using two extracellular silver/silver chloride electrodes placed in the bath 0.5 to 1.5 cm from the epicardial and endocardial surfaces of the preparation (Epi: “+” pole). Transmembrane action potential was recorded from the endocardium or epicardium using the floating glass microelectrodes. […]

[6] = dofetilide 10 nM, BCL 2000 ms, 3 mM K+

Cc1cccc(C)c1OCC(C)N (racemic) [mexiletine, (RS)-1-(2,6-dimethylphenoxy)propan-2-amine]
Induced Atrial Fibrillation (incidence) ([1]; mexiletine 10 μM): 4 of 4 preparations
suppression of induction of atrial fibrillation [1]: not
therapeutical plasma concentration in humans [2]: ~10 µM
atrial preparations that lost excitation, drug alone [3]: none
effect on atrial ERP, drug alone [3]: mildly to moderately prolonged
reversibility of the effect on dofetilide-induced EAD, R-on-T and TdP ([4]; after removal of mexiletine EAD, R-on-T reoccurred): washable
effect on EAD, R-on-T and TdP induced by 10 nM dofetilide ([4]; mexiletine 10 μM, low (3 mM) K+ (FIG. 6)): effectively abolished

CN(CCOc1ccc(NS(C)(=O)=O)cc1)CCc1ccc(NS(C)(=O)=O)cc1 [dofetilide, N-[4-(2-{[2-(4-methanesulfonamidophenoxy)ethyl](methyl)amino}ethyl)phenyl] methanesulfonamide]
effect on atrial APD90 [5]: significantly increased
Induced Atrial Fibrillation (incidence) ([1]; dofetilide 3 nM): 3 of 6 preparations
effect on atrial fibrillation readily induced by single stimuli ([1]; one atrial wedge preparation, dofetilide alone 10 nM and 30 nM (FIG. 5)): failed to suppress induction of atrial fibrillation and premature beats; also recorded: reduced only duration and incidences of atrial fibrillation
suppression of induction of atrial fibrillation [1]: partially suppressed
therapeutical plasma concentration in humans [2]: ~0.003 µM
atrial preparations that lost excitation, drug alone [3]: none
effect on atrial ERP, drug alone [3]: mildly to moderately prolonged
EAD (incidence) [4, 6]: 7 of 7
R-on-T (incidence) [4, 6]: 5 of 7
TdP (incidence) [4, 6]: 1 of 7
